T1: ChsE4 (Rv3504, formerly FadE26), N-terminal His6 tag (Mycobacterium tuberculosis H37Rv, UniProt I6YCA3 1-400)
T1 sequence: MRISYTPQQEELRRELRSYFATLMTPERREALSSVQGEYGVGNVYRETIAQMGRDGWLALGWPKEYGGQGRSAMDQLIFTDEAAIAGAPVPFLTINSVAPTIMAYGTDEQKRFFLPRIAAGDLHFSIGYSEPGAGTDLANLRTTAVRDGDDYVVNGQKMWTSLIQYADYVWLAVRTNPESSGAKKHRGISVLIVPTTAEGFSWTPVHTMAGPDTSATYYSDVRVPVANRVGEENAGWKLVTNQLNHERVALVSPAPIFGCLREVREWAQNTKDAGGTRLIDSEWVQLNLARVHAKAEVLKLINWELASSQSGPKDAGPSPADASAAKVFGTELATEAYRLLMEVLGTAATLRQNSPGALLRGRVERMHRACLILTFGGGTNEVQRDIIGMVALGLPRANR

B1: ChsE5 (Rv3505, formerly FadE27) (enzyme)
chain: MDFTTTEAAQDLGGLVDTIVDAVCTPEHQRELDKLEQRFDRELWRKLIDAGILSSAAPESLGGDGFGVLEQVAVLVALGHQLAAVPYLESVVLAAGALARFGSPELQQGWGVSAVSGDRILTVALDGEMGEGPVQAAGTGHGYRLTGTRTQVGYGPVADAFLVPAETDSGAAVFLVAAGDPGVAVTALATTGLGSVGHLELNGAKVDAARRVGGTDVAVWLGTLSTLSRTAFQLGVLERGLQMTAEYARTREQFDRPIGSFQAVGQRLADGYIDVKGLRLTLTQAAWRVAEDSLASRECPQPADIDVATAGFWAAEAGHRVAHTIVHVHGGVGVDTDHPVHRYFLAAKQTEFALGGATGQLRRIGRELAETPA

How the values were obtained:
ChsE4-ChsE5 = ChsE4-ChsE5 (Mycobacterium tuberculosis, UniProt I6YCA3)
[1] = target: T1, ChsE4 (Rv3504, formerly FadE26), …; assay: AUC + other: LC/UV/MS

| Molecule | KM (ChsE4-ChsE5) [µM] | binding result [1] |
| --- | --- | --- |
| CC(CCC[C@@H](C)[C@H]1CC[C@H]2[C@@H]3CCC4=CC(=O)CC[C@]4(C)[C@H]3CC[C@]12C)C(=O)SCCNC(=O)CCNC(=O)[C@H](O)C(C)(C)COP(=O)(O)OP(=O)(O)OC[C@H]1O[C@@H](n2cnc3c(N)ncnc32)[C@H](O)[C@@H]1OP(=O)(O)O (some centres unmarked) [3-OCS-CoA] | 20 ± 2.7 |  |
| B1 |  | binds |
